Reference: US20230271142A1, “METHODS OF PREPARING SOLID PARTICULATE MATERIALS” (MICROPORE TECHNOLOGIES LIMITED, priority 2020, published 2023)

Assay: Particle size distribution of atorvastatin particles produced via LDC (laser diffraction)
Type: physicochemical
Description: 0.6 g of Atorvastatin was dissolved in 10 ml methanol in a beaker at room temperature to make up the organic phase. 0.5% HPMC (Mn 10,000) in DI water was used as the aqueous phase. The LDC was configured with a membrane with 10 μm pores, spaced 200 μm apart in a square grid, in a ring. The stirrer speed was set at […] (1750 rpm), and the organic phase injection rate set at 10 ml/min. The line was primed with organic phase and the CP was poured into the stirred cell. Addition was started and ended when 3 ml of DP was injected. The solution was left to stir until precipitation was visible. The crystals were analyzed via microscopy and Laser Diffraction (Beckmann Coulter LS-230).

[1] = 10 μm pores, methanol solution into 0.5% HPMC water

Span: 1.66 | Volume Mean (10 μm pores): 10.24 μm | D10 [1]: 4.38 μm | D50 [1]: 8.78 μm | D90 [1]: 18.92 μm
SMILES: CC(C)c1c(C(=O)Nc2ccccc2)c(-c2ccccc2)c(-c2ccc(F)cc2)n1CC[C@@H](O)C[C@@H](O)CC(=O)O [Atorvastatin]
